Reference: US9194802B2, “Luminescent probes having a phenanthridinyl antenna, and methods of use” (REGENTS OF THE UNIVERSITY OF MINNESOTA, priority 2012, dated 2015)

Key:
[1] = Dickins et al., J. Am. Chem. Soc., 2002; cited from earlier work
ATP = test: Stern-Volmer time-delayed luminescence quenching titration with ATP; type: binding; settings: for Stern-Volmer constant KSV with ATP: excitation 346 nm, time-delay 0.1 ms, probe 10 μM, water, Tris 10 mM, pH 7.0, 20° C., n=3, emission integrated 450-650 nm (Tb) or 550-750 (Eu); for log KSV for ATP: from Stern-Volmer constants of Table 2
Description: (§1) Unless otherwise noted, starting materials were obtained from commercial suppliers and used without further purification. Water was deionized and further purified by a Millipore cartridge system (resistivity 1.8×10^7Ω). All organic extracts were dried over anhydrous MgSO4 and solvents were removed with a rotary evaporator. Flash chromatography was performed on Salicycle Silica Gel (230-400 mesh) or Brockmann activated aluminum oxide (neutral, 60 mesh). ^1H NMR spectra were recorded on a Varian 300 or Varian 500 at 300 MHz or 500 MHz, respectively, and ^13C NMR spectra on a Varian 300 at 75 MHz; the residual solvent peak was used as an internal reference. Data for ^1H NMR are recorded as follows: chemical shift (δ, ppm), multiplicity (s, singlet; br s, broad singlet; d, doublet, t, triplet; q, quartet; m, multiplet), integration, coupling constant (Hz). Data for ^13C NMR are reported in terms of chemical shift (δ, ppm). Mass spectra (LR=lo2w resolution; HR=high resolution; MS-ESI=electrospray mass spectrometry) were recorded on a Bruker BioTOF II. Purity of lanthanide complexes was evaluated by high performance liquid chromatography (HPLC) using a Varian Microsorb 300-5 C18 250 mm×4.6 mm at a flow rate was 1.0 mL/min (see supporting information for spectra and solvent gradients). UV-Vis data was obtained on a Cary Bio 100 UV-Vis Spectrophotometer. Data was collected over the range of 200-800 nm. Fluorescence data was acquired on a Varian Cary Eclipse Fluorescence Spectrophotometer using a quartz cell with a path length of 10 mm, excitation slit width of 5 nm and emission slit width of 5 nm at T=20° C. Solutions were not degased prior to measurement of their luminescence spectra and lifetimes.

ADP = test: Stern-Volmer time-delayed luminescence quenching titration with ADP; type: binding; settings: for Stern-Volmer constant KSV with ADP: excitation 346 nm, time-delay 0.1 ms, probe 10 μM, water, Tris 10 mM, pH 7.0, 20° C., n=3, emission integrated 450-650 nm (Tb) or 550-750 (Eu)
Description: as §1

AMP = test: Stern-Volmer time-delayed luminescence quenching titration with AMP; type: binding; settings: for Stern-Volmer constant KSV with AMP: excitation 346 nm, time-delay 0.1 ms, probe 10 μM, water, Tris 10 mM, pH 7.0, 20° C., n=3, emission integrated 450-650 nm (Tb) or 550-750 (Eu)
Description: as §1

GTP = test: Stern-Volmer time-delayed luminescence quenching titration with GTP; type: binding; settings: for Stern-Volmer constant KSV with GTP: excitation 346 nm, time-delay 0.1 ms, probe 10 μM, water, Tris 10 mM, pH 7.0, 20° C., n=3, emission integrated 450-650 nm (Tb) or 550-750 (Eu)
Description: as §1

GDP = test: Stern-Volmer time-delayed luminescence quenching titration with GDP; type: binding; settings: excitation 346 nm, time-delay 0.1 ms, probe 10 μM, water, Tris 10 mM, pH 7.0, 20° C., n=3, emission integrated 450-650 nm (Tb) or 550-750 (Eu)
Description: as §1

GMP = test: Stern-Volmer time-delayed luminescence quenching titration with GMP; type: binding; settings: excitation 346 nm, time-delay 0.1 ms, probe 10 μM, water, Tris 10 mM, pH 7.0, 20° C., n=3, emission integrated 450-650 nm (Tb) or 550-750 (Eu)
Description: as §1

CTP = test: Stern-Volmer time-delayed luminescence quenching titration with CTP; type: binding; settings: excitation 346 nm, time-delay 0.1 ms, probe 10 μM, water, Tris 10 mM, pH 7.0, 20° C., n=3, emission integrated 450-650 nm (Tb) or 550-750 (Eu)
Description: as §1

CDP = test: Stern-Volmer time-delayed luminescence quenching titration with CDP; type: binding; settings: excitation 346 nm, time-delay 0.1 ms, probe 10 μM, water, Tris 10 mM, pH 7.0, 20° C., n=3, emission integrated 450-650 nm (Tb) or 550-750 (Eu)
Description: as §1

CMP = test: Stern-Volmer time-delayed luminescence quenching titration with CMP; type: binding; settings: excitation 346 nm, time-delay 0.1 ms, probe 10 μM, water, Tris 10 mM, pH 7.0, 20° C., n=3, emission integrated 450-650 nm (Tb) or 550-750 (Eu)
Description: as §1

UTP = test: Stern-Volmer time-delayed luminescence quenching titration with UTP; type: binding; settings: excitation 346 nm, time-delay 0.1 ms, probe 10 μM, water, Tris 10 mM, pH 7.0, 20° C., n=3, emission integrated 450-650 nm (Tb) or 550-750 (Eu)
Description: as §1

UDP = test: Stern-Volmer time-delayed luminescence quenching titration with UDP; type: binding; settings: excitation 346 nm, time-delay 0.1 ms, probe 10 μM, water, Tris 10 mM, pH 7.0, 20° C., n=3, emission integrated 450-650 nm (Tb) or 550-750 (Eu)
Description: as §1

UMP = test: Stern-Volmer time-delayed luminescence quenching titration with UMP; type: binding; settings: excitation 346 nm, time-delay 0.1 ms, probe 10 μM, water, Tris 10 mM, pH 7.0, 20° C., n=3, emission integrated 450-650 nm (Tb) or 550-750 (Eu)
Description: as §1

[2] = test system: PKAc, the catalytic domain of protein kinase A; test: Continuous monitoring of ATP to ADP conversion during phosphorylation of KRRWSAP-NH2 by PKAc; type: biochemical; settings: both probes 10 μM, PKAc 1 μM, peptide 1.5 mM, ATP 1 mM, 37° C., 0-6 hours; Tb at 490 and 545 nm, Eu at 688 and 700 nm
Description: FIG. 29 illustrates an exemplary embodiment of continuous monitoring of ATP to ADP conversion during enzymatic phosphorylation of the peptide KRRWSAP-NH2 by its kinase PKAc. Experimental conditions: [Tb-DOTAm-Phen]^3+=10 μM, Eu-DOTA-Phen=10 μM, [PKAc]=1 μM, [amide-blocked KRRWSAP-NH2]=1.5 mM, [ATP]=1 mM, [Tris]=10 mM, [Brij-35]=0.05%, [MgCl2]=50 mM, [EGTA]=5 mM, [DTT]=2 mM, pH 7.0, T=37° C., excitation at 346 nm, time delay=0.1 ms. Reaction time: 0-6 hours.
The ability of the two lanthanide probes to monitor enzymatic reactions involving ATP or GTP directly and continuously was evaluated with PKAc, the catalytic domain of protein kinase A. PKAc is a serine-threonine protein kinase that is actively studied as a biological target in cancer therapy (Naviglio et al., Expert Opin. Ther. Targets, 2009, 13, 83-92). […] Phosphorylation of the substrate and conversion of ATP to ADP takes place only when all components are present in the buffer. […] [Tb-DOTAm-Phen]^3+ and Eu-DOTA-Phen are thus able to directly monitor kinases' activities by time-gated luminescence spectroscopy. […] It should be noted, however, that these probes are not intended for use in cells as the presence of more than two purine nucleotides would make the results hard to interpret.

| Compound | Stern-Volmer constant KSV with ATP (ATP) | log KSV for ATP (ATP) | Stern-Volmer constant KSV with ADP (ADP) | Stern-Volmer constant KSV with AMP (AMP) | Stern-Volmer constant KSV with GTP (GTP) | Stern-Volmer constant KSV with GDP (GDP) | Stern-Volmer constant KSV with GMP (GMP) | Stern-Volmer constant KSV with CTP (CTP) | Stern-Volmer constant KSV with CDP (CDP) | Stern-Volmer constant KSV with CMP (CMP) | Stern-Volmer constant KSV with UTP (UTP) | Stern-Volmer constant KSV with UDP (UDP) | Stern-Volmer constant KSV with UMP (UMP) | time-gated luminescence as the PKAc reaction proceeds (ADP:ATP ratio increases) [2] | other results |
| --- | --- | --- | --- | --- | --- | --- | --- | --- | --- | --- | --- | --- | --- | --- | --- |
| O=C([O-])CN1CCN(CC(=O)[O-])CCN(CC(=O)O)CCN(CC(=O)[O-])CC1.[Gd+3] [Gd-DOTA] |  |  |  |  |  |  |  |  |  |  |  |  |  |  | log Ka with biphosphate [1]: 2.2 |
| Eu-DOTA-Phen | 0.065(1) | −1.2 | 0.058(1) | 0.053(1) | 0.099(1) | 0.164(3) | 0.118(2) | 0.006(1) | 0.008(1) | 0.008(1) | 0.001(2) | 0.002(2) | 0.007(2) | remains constant |  |
| Tb-PhenDOTAm | 1.28 ± 0.05 | 0.11 | 0.85 ± 0.02 | 0.397 ± 0.005 | 33.1 ± 0.1 | 9.84 ± 0.05 | 2.84 ± 0.01 | 0.103 ± 0.007 | 0.149 ± 0.009 | 0.139 ± 0.006 | 0.047 ± 0.002 | 0.065 ± 0.007 | 0.070 ± 0.004 | increases | time-gated luminescence quenched by ATP (ATP; 1 mM ATP): 59.7%; Stern-Volmer constant KSV with ATP (ATP; listed as [Tb-DOTAm-Phen]^3+): 1.28(5); phosphorescence quenched by ADP (ADP; 1 mM ADP): 47.4%; Stern-Volmer constant KSV with ADP (ADP; listed as [Tb-DOTAm-Phen]^3+): 0.85(2); phosphorescence quenched by AMP (AMP; 1 mM AMP): 31.0%; Stern-Volmer constant KSV with AMP (AMP; listed as [Tb-DOTAm-Phen]^3+): 0.397(5); increase of apparent binding affinity for GTP over that of the neutral complex (12) (GTP; +3 charged probe (1) versus neutral complex (12)): 300 fold; Stern-Volmer constant KSV with GTP (GTP; listed as [Tb-DOTAm-Phen]^3+): 33.1(1); Stern-Volmer constant KSV with GDP (GDP; listed as [Tb-DOTAm-Phen]^3+): 9.84(5); Stern-Volmer constant KSV with GMP (GMP; listed as [Tb-DOTAm-Phen]^3+): 2.84(1); Stern-Volmer constant KSV with CTP (CTP; listed as [Tb-DOTAm-Phen]^3+): 0.103(7); Stern-Volmer constant KSV with CDP (CDP; listed as [Tb-DOTAm-Phen]^3+): 0.149(9); Stern-Volmer constant KSV with CMP (CMP; listed as [Tb-DOTAm-Phen]^3+): 0.139(6); Stern-Volmer constant KSV with UTP (UTP; listed as [Tb-DOTAm-Phen]^3+): 0.047(2); Stern-Volmer constant KSV with UDP (UDP; listed as [Tb-DOTAm-Phen]^3+): 0.065(7); Stern-Volmer constant KSV with UMP (UMP; listed as [Tb-DOTAm-Phen]^3+): 0.070(4) |
